According to patent publication US9365574B2, “Soluble guanylate cyclase activators” (Merck Sharp & Dohme Corp., priority 2010, dated 2016):

Test system: Spontaneously hypertensive rats (SHR)
Experiment: Acute Efficacy in Spontaneously Hypertensive Rats (SHR), telemetry blood pressure
Format: in vivo, rat
Description: Acute Efficacy in Spontaneously Hypertensive Rats (SHR)
Spontaneously hypertensive rats (SHR, male, Charles River) were implanted with DSI TA11PA-C40 telemetry device (Data Sciences, Inc., St. Paul, Minn.) under isoflurane or ketamine/metomidine anesthesia. The telemetry unit catheter was inserted into the descending aorta via the femoral artery and the telemetry device was implanted subcutaneously in the left flank area. Animals were allowed to recover from surgery for 14 days before the start of any studies. Blood pressure, heart rate, and activity signals from conscious, freely moving rats were recorded continuously for 30 seconds every 10 minutes. On the day prior to administration of compound, a single oral dose of vehicle (10% transcutol/20% Cremophor/70% water) was administered to all animals to establish baseline control data. The blood pressure lowering efficacy of compound (PO) or vehicle was evaluated following a single oral gavage. Data were collected as hourly averages, and changes in blood pressure were calculated by subtracting control baseline data on an hourly basis. Animals were maintained on normal diet with a 12 hour light-dark cycle.
Maximum peak decreases of systolic blood pressure (SBP) in SHR at a particular P.O. dose (mpk milligrams per kilogram) for the following representative compounds are provided.

Structure (SMILES) | Maximum peak decrease of systolic blood pressure (SBP) in SHR, Category (single oral dose 0.3 mpk P.O.) | other results
CC1(N)C(=O)Nc2nc(-c3nn(CCC(F)(F)C(F)(F)F)c4cc(Cl)ccc34)nc(N)c21 (stereo not drawn) [Example 201, 4,5-diamino-2-[6-chloro-1-(3,3,4,4,4-pentafluorobutyl)-1H-indazol-3-yl]-5-methyl-5,7-dihydro-6H-pyrrolo[2,3-d]pyrimidin-6-one] | A (Category A=SBP in SHRs<25 mmHg) | –
CC1(NCC2CC2)C(=O)Nc2nc(-c3nn(CCC(F)(F)C(F)(F)F)c4cc(Cl)ccc34)nc(N)c21 (stereo not drawn) [Example 202, 4-amino-2-[6-chloro-1-(3,3,4,4,4-pentafluorobutyl)-1H-indazol-3-yl)-5-[(cyclopropylmethyl)amino]-5-methyl-5,7-dihydro-6H-pyrrolo[2,3-d]pyrimidin-6-one] | C (Category C=SBP in SHRs>40 mmHg) | –
CC1(c2nnc(C(F)(F)F)o2)C(=O)Nc2nc(-c3nn(CCC(F)(F)C(F)(F)F)c4ccncc34)nc(N)c21 (stereo not drawn) [Example 203, 4-amino-5-methyl-2-[1-(3,3,4,4,4-pentafluorobutyl)-1H-pyrazolo[3,4-d]pyridin-3-yl]-5-[5-(trifluoromethyl)-1,3,4-oxadiazol-2-yl)-5,7-dihydro-6H-pyrrolo[2,3-d]pyrimidin-6-one] | C (Category C=SBP in SHRs>40 mmHg) | –
CC1(c2nnco2)C(=O)Nc2nc(-c3nn(CCC(F)(F)C(F)(F)F)c4ncccc34)nc(N)c21 (stereo not drawn) [Example 204, 4-amino-5-methyl-5-(1,3,4-oxadiazol-2-yl)-2-[1-(3,3,4,4,4-pentafluorobutyl)-1H-pyrazolo[3,4-b]pyridin-3-yl]-5,7-dihydro-6H-pyrrolo[2,3-d]pyrimidin-6-one] | B (Category B=SBP in SHRs 25-40 mmHg) | –
CC1(C(N)=S)C(=O)Nc2nc(-c3nn(CCC(F)(F)C(F)(F)F)c4ncccc34)nc(N)c21 (stereo not drawn) [Example 205, 4-amino-5-methyl-6-oxo-2-[1-(3,3,4,4,4-pentafluorobutyl)-1H-pyrazolo[3,4-6]pyridin-3-yl]-6,7-dihydro-5H-pyrrolo[2,3-d]pyrimidine-5-carbothioamide] | – | Maximum peak decrease of systolic blood pressure (SBP) in SHR, Category (single oral dose 1 mpk P.O.): C (Category C=SBP in SHRs>40 mmHg)
Cc1nc(C2(C)C(=O)Nc3nc(-c4nn(CCC(F)(F)C(F)(F)F)c5ncccc45)nc(N)c32)sc1C (stereo not drawn) [Example 206, 4-amino-5-(4,5-dimethyl-1,3-thiazol-2-yl)-5-methyl-2-[1-(3,3,4,4,4-pentafluorobutyl)-1H-pyrazolo[3,4-b]pyridin-3-yl]-5,7-dihydro-6H-pyrrolo[2,3-d]pyrimidin-6-one] | C (Category C=SBP in SHRs>40 mmHg) | –
CC1(c2nc(C(F)(F)F)no2)C(=O)Nc2nc(-c3nn(CCC(F)(F)C(F)(F)F)c4ncccc34)nc(N)c21 (stereo not drawn) [Example 207, 4-amino-5-methyl-2-[1-(3,3,4,4,4-pentafluorobutyl)-1H-pyrazolo[3,4-b]pyridin-3-yl]-5-[3-(trifluoromethyl)-1,2,4-oxadiazol-5-yl]-5,7-dihydro-6H-pyrrolo[2,3-d]pyrimidin-6-one] | C (Category C=SBP in SHRs>40 mmHg) | –
CC1(CC(=O)NC2CC2)C(=O)Nc2nc(-c3nn(CCC(F)(F)C(F)(F)F)c4cc(Cl)ccc34)nc(N)c21 (stereo not drawn) [Example 208, 2-{4-amino-2-[6-chloro-1-(3,3,4,4,4-pentafluorobutyl)-1H-indazol-3-yl]-5-methyl-6-oxo-6,7-dihydro-5H-pyrrolo[2,3-d]pyrimidin-5-yl}-N-cyclopropylacetamide] | – | Maximum peak decrease of systolic blood pressure (SBP) in SHR, Category (single oral dose 1 mpk P.O.): A (Category A=SBP in SHRs<25 mmHg)
CC1(C(=O)Nc2ccccn2)C(=O)Nc2nc(-c3nn(CCOC(F)(F)F)c4ncccc34)nc(N)c21 (stereo not drawn) [Example 209, 4-amino-5-methyl-6-oxo-N-pyridin-2-yl-2-{1-[2-(trifluoromethoxy)ethyl]-1H-pyrazolo[3,4-b]pyridin-3-yl}-6,7-dihydro-5H-pyrrolo[2,3-d]pyrimidine-5-carboxamide] | – | Maximum peak decrease of systolic blood pressure (SBP) in SHR, Category (single oral dose 1 mpk P.O.): B (Category B=SBP in SHRs 25-40 mmHg)
Cn1ccc(NC(=O)C2(C)C(=O)Nc3nc(-c4nn(CCOC(F)(F)F)c5ncccc45)nc(N)c32)n1 (stereo not drawn) [Example 210, 4-amino-5-methyl-N-(1-methyl-1H-pyrazol-3-yl)-6-oxo-2-{1-[2-(trifluoromethoxy)ethyl]-1H-pyrazolo[3,4-b]pyridin-3-yl}-6,7-dihydro-5H-pyrrolo[2,3-d]pyrimidine-5-carboxamide] | B (Category B=SBP in SHRs 25-40 mmHg) | –
CCc1nnc(C2(C)C(=O)Nc3nc(-c4nn(CCC(F)(F)C(F)(F)F)c5ncccc45)nc(N)c32)o1 (stereo not drawn) [Example 211, 4-amino-5-(5-ethyl-1,3,4-oxadiazol-2-yl)-5-methyl-2-[1-(3,3,4,4,4-pentafluorobutyl)-1H-pyrazolo[3,4-b]pyridin-3-yl]-5,7-dihydro-6H-pyrrolo[2,3-d]pyrimidin-6-one] | C (Category C=SBP in SHRs>40 mmHg) | –
CC1(c2nnc(C(F)F)o2)C(=O)Nc2nc(-c3nn(CCC(F)(F)C(F)(F)F)c4ncccc34)nc(N)c21 (stereo not drawn) [Example 212, 4-amino-5-[5-(difluoromethyl)-1,3,4-oxadiazol-2-yl]-5-methyl-2-[1-(3,3,4,4.4-pentafluorobutyl)-1H-pyrazolo[3,4-b]pyridin-3-yl]-5,7-dihydro-6H-pyrrolo(2,3-d]pyrimidin-6-one] | – | Maximum peak decrease of systolic blood pressure (SBP) in SHR, Category (single oral dose 0.1 mpk P.O.): B (Category B=SBP in SHRs 25-40 mmHg)
CC(C)c1nnc(C2(C)C(=O)Nc3nc(-c4nn(CCC(F)(F)C(F)(F)F)c5ncccc45)nc(N)c32)o1 (stereo not drawn) [Example 213, 4-amino-5-methyl-5-[5-(1-methylethyl)-1,3,4-oxadiazol-2-yl]-2-[1-(3,3,4,4,4-pentafluorobutyl)-1H-pyrazolo[3,4-b]pyridin-3-yl]-5,7-dihydro-6H-pyrrolo[2,3-d]pyrimidin-6-one] | C (Category C=SBP in SHRs>40 mmHg) | –
CC1(C(N)=O)C(=O)Nc2nc(-c3nn(CCC(F)(F)C(F)(F)F)c4nc(Cl)ccc34)nc(N)c21 (stereo not drawn) [Example 214, 4-amino-2-[6-chloro-1-(3,3,4,4,4-pentafluorobutyl)-1H-pyrazolo[3,4-b]pyridin-3-yl]-5-methyl-6-oxo-6,7-dihydro-5H-pyrrolo[2,3-d]pyrimidine-5-carboxamide] | – | Maximum peak decrease of systolic blood pressure (SBP) in SHR, Category (single oral dose 0.1 mpk P.O.): A (Category A=SBP in SHRs<25 mmHg)
Cn1cc(NC(=O)C2(C)C(=O)Nc3nc(-c4nn(CCOC(F)(F)F)c5ncccc45)nc(N)c32)cn1 (stereo not drawn) [Example 215, 4-amino-5-methyl-N-(1-methyl-1H-pyrazol-4-yl)-6-oxo-2-{1-[2-(trifluoromethoxy)ethyl]-1H-pyrazolo[3,4-b]pyridin-3-yl}-6,7-dihydro-5H-pyrrolo[2,3-d]pyrimidine-5-carboxamide] | B (Category B=SBP in SHRs 25-40 mmHg) | –
CC1(c2nnc(CC(F)(F)F)o2)C(=O)Nc2nc(-c3nn(CCC(F)(F)C(F)(F)F)c4ncccc34)nc(N)c21 (stereo not drawn) [Example 216, 4-amino-5-methyl-2-[1-(3,3,4,4,4-pentafluorobutyl)-1H-pyrazolo[3,4-b]pyridin-3-yl]-5-[5-(2,2,2-trifluoroethyl)-1,3,4-oxadiazol-2-yl]-5,7-dihydro-6H-pyrrolo[2,3-d]pyrimidin-6-one] | – | Maximum peak decrease of systolic blood pressure (SBP) in SHR, Category (single oral dose 0.1 mpk P.O.): A (Category A=SBP in SHRs<25 mmHg)
Cn1cc(NC(=O)C2(C)C(=O)Nc3nc(-c4nn(CCC(F)(F)C(F)(F)F)c5cc(Cl)ccc45)nc(N)c32)cn1 (stereo not drawn) [Example 217, 4-amino-2-[6-chloro-1-(3,3,4,4,4-pentafluorobutyl)-1H-indazol-3-yl]-5-methyl-N-(1-methyl-1H-pyrazol-4-yl)-6-oxo-6,7-dihydro-5H-pyrrolo[2,3-d]pyrimidine-5-carboxamide] | C (Category C=SBP in SHRs>40 mmHg) | –
Cn1ccc(NC(=O)C2(C)C(=O)Nc3nc(-c4nn(CCC(F)(F)C(F)(F)F)c5ncccc45)nc(N)c32)n1 (stereo not drawn) [Example 218, 4-amino-5-methyl-N-(1-methyl-1H-pyrazol-3-yl)-6-oxo-2-[1-(3,3,4,4,4-pentafluorobutyl)-1H-pyrazolo[3,4-b]pyridin-3-yl]-6,7-dihydro-5H-pyrrolo[2,3-d]pyrimidine-5-carboxamide] | – | Maximum peak decrease of systolic blood pressure (SBP) in SHR, Category (single oral dose 1 mpk P.O.): C (Category C=SBP in SHRs>40 mmHg)
C#CC1(C)C(=O)Nc2nc(-c3nn(CCC(F)(F)C(F)(F)F)c4ncccc34)nc(N)c21 (stereo not drawn) [Example 219, 4-amino-5-ethynyl-5-methyl-2-[1-(3,3,4,4,4-pentafluorobutyl)-1H-pyrazolo[3,4-b]pyridin-3-yl]-5,7-dihydro-6H-pyrrolo[2,3-d]pyrimidin-6-one] | C (Category C=SBP in SHRs>40 mmHg) | –
COc1ccc2c(-c3nc(N)c4c(n3)NC(=O)C4(C)C(N)=O)nn(CCC(F)(F)C(F)(F)F)c2n1 (stereo not drawn) [Example 220, 4-amino-2-[6-methoxy-1-(3,3,4,4,4-pentafluorobutyl)-1H-pyrazolo[3,4-b]pyridin-3-yl]-5-methyl-6-oxo-6,7-dihydro-5H-pyrrolo[2,3-d]pyrimidine-5-carboxamide] | – | Maximum peak decrease of systolic blood pressure (SBP) in SHR, Category (single oral dose 1 mpk P.O.): B (Category B=SBP in SHRs 25-40 mmHg)
CC1(C(=O)NC2CC2)C(=O)Nc2nc(-c3nn(CCC(F)(F)F)c4nc(C#N)ccc34)nc(N)c21 (stereo not drawn) [Example 221, 4-amino-2-[6-cyano-1-(3,3,3-trifluoropropyl)-1H-pyrazolo[3,4-b]pyridin-3-yl]-N-cyclopropyl-5-methyl-6-oxo-6,7-dihydro-5H-pyrrolo[2,3-d]pyrimidine-5-carboxamide] | – | Maximum peak decrease of systolic blood pressure (SBP) in SHR, Category (single oral dose 1 mpk P.O.): C (Category C=SBP in SHRs>40 mmHg)
